Measured values reported in ChEMBL document CHEMBL5441451, “ASAP - In vitro cytotoxicity” (2024).
Several values for one entry are separate records, joined by “and”; a condition that tells them apart may be missing. Equal entries are not always repeated.

Assays:
[1] = (§1) Functional metabolic assay to measure dose dependent changes in cell viability from drug treatment in HeLa-ACE2 cells. Hela-ACE2 cells are seeded prior to drug treatment, then incubated in MTT (3-[4,5-dimethylthiazol-2-yl]-2,5- diphenyltetrazolium bromide) labelling reagent and SDS. Absorbance is measured at 560 and 750 nm and analyzed by Gen5 software. The assay has been performed by Icahn School of Medicine at Mount Sinai.; format: toxicity, cell-based; settings: human
[2] = Functional metabolic assay to measure dose dependent changes in cell viability from drug treatment in Vero E6/TMPRSS2 cells (cotreated with P-gp inhibitor, Elacridar). Cells are treated with antiviral candidates that have been serially diluted. Cytotoxicity is reported via measuring absorbance and analysis of MTT/MTS assays in uninfected cells. The assay has been performed by Icahn School of Medicine at Mount Sinai.; format: toxicity, cell-based, VeroE6/TMPRSS2; settings: chlorocebus sabaeus
[3] = as §1, with “iPSC-Pneumocyte” for “HeLa-ACE2”, “The” for “Hela-ACE2”, “seeded” for “seeded prior to drug treatment,”, “labeling” for “labelling”; format: toxicity, cell-based; settings: human; for CC50: iPSC-Pneumocyte cells; for CC10: pneumocyte
[4] = test system: Middle East respiratory syndrome-related coronavirus; experiment: microbe, parasite or virus in culture; format: functional, Chlorocebus sabaeus; settings: Vero 76
[5] = Vero E6/TMPRSS2 cells, with Elacridar (P-gp inhibitor), concentration not stated

| Compound | CC50 ([1]; HeLa-ACE2 cells) [µM] | CC10 ([1]; hela-ace2) | CC50 ([1]; hela-ace2) [µM] | CC50 [2, 5] [µM] | CC10 ([2]; veroe6/tmprss2) [µM] | CC50 [3] [µM] | CC10 [3] [µM] | CC50 [4] [µM] | CC50 ([2]; veroe6/tmprss2) [µM] |
| --- | --- | --- | --- | --- | --- | --- | --- | --- | --- |
| CC(C)[C@H](Nc1ncnc2[nH]c(-c3cnn(C)c3C#N)cc12)c1ccc2c(n1)OCCO2 | > 20 | > 20 µM and > 50 µM | 12.5 | > 5 | > 5 |  |  |  |  |
| CNCc1cc(-c2cc3c(N[C@@H](c4ccc5c(c4)S(=O)(=O)CCC5)C(C)C)ncnc3[nH]2)co1 | > 20 | > 20 µM |  | > 5 | > 5 | > 50 | > 50 |  |  |
| C[C@H](C(=O)O)[C@@H](NC(=O)c1ncnc2[nH]ccc12)c1ccc(Br)cc1 | > 20 | > 20 µM |  | > 5 | > 5 |  |  |  |  |
| CNC(=O)c1c[nH]c2ncnc(N[C@H](c3ccc4c(c3)S(=O)(=O)CCC4)C(C)C)c12 | > 20 | > 20 µM |  |  |  | > 50 | > 50 | > 32 |  |
| CNC(=O)Cn1cc(-c2cc3c(N[C@@H](c4ccc5c(c4)S(=O)(=O)CCC5)C(C)C)ncnc3[nH]2)cn1 | > 20 | > 20 µM |  | > 5 | > 5 | 1.7 | 1.528 |  |  |
| CC(C)[C@@H](Nc1ncnc2[nH]c(-c3cnn(C)c3C#N)cc12)c1ccc2c(n1)OCCO2 |  | > 50 µM and > 20 µM | > 50 | > 5 | > 5 | 6.02 | 5.176 |  |  |
| CC(C)[C@@H](Nc1ncnc2[nH]c(C(=O)N[C@@H]3CCN(C)C3)cc12)c1ccc2c(c1)S(=O)(=O)CCC2 | > 20 | > 20 µM |  | > 5 | > 5 | < 0.206 | < 0.206 |  |  |
| CC(C)[C@H](Nc1ncnc2[nH]ccc12)c1ccc2c(c1)S(=O)(=O)CCC2 | > 20 | > 20 µM |  |  |  |  |  |  | > 20 |
| COc1ccc([C@H](Cc2nnn[nH]2)NC(=O)c2ncnc3[nH]ccc23)cc1 | > 20 | > 20 µM |  | > 5 | > 5 |  |  |  |  |
| Cc1nn(C)cc1-c1cc2c(N[C@H](c3ccc4c(c3)S(=O)(=O)CCC4)C(C)C)ncnc2[nH]1 | > 20 | > 20 µM |  | > 5 | > 5 |  |  |  |  |
